For 16 compounds, T/C results are on record in PubChem BioAssay AID248 (DTP/NCI, 2004).

“And” between values parts separate entries of the source, which are not always exact repeats. Equal entries are not always repeated. Inconclusive results and toxic doses are left out.

For the assay, the system named is L1210 leukemia ip in BDF1 mice, survival T/C. The assay can be described thus: NCI In Vivo Anticancer Drug Screen. Data for tumor model L1210 Leukemia (intraperitoneal) in B6D2F1 (BDF1) mice. Particulars: endpoint: mean survival time, higher = longer survival. The essentials:
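Ratio derived from survival: compound-dosed mice over vehicle-dosed mice, all bearing a transplantable tumor.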

The mark [1] stands for this setting: dose: 100.0 mg/kg/injection, schedule: Q04DX003 (ip), vehicle: Klucel (hydroxypropylcellulose) (HPC).
Where [2] appears, read: dose: 200.0 mg/kg/injection, schedule: Q04DX003 (ip), vehicle: Klucel (hydroxypropylcellulose) (HPC).
Setting [3] is: dose: 100.0 mg/kg/injection, schedule: Q01DX009 (ip), vehicle: Klucel (hydroxypropylcellulose) (HPC).
[4] abbreviates: dose: 200.0 mg/kg/injection, schedule: Q01DX009 (ip), vehicle: Klucel (hydroxypropylcellulose) (HPC).
The mark [5] stands for this setting: dose: 400.0 mg/kg/injection, schedule: Q01DX009 (ip), vehicle: Klucel (hydroxypropylcellulose) (HPC).
Setting [6] is: dose: 100.0 mg/kg/injection, schedule: Q04DX003 (ip), vehicle: saline.
Where [7] appears, read: dose: 200.0 mg/kg/injection, schedule: Q04DX003 (ip), vehicle: saline.
Setting [8] is: dose: 400.0 mg/kg/injection, schedule: Q04DX003 (ip), vehicle: saline.
Setting [9] is: dose: 100.0 mg/kg/injection, schedule: Q04DX003 (ip), vehicle: saline with Tween-80.
Where [10] appears, read: dose: 200.0 mg/kg/injection, schedule: Q04DX003 (ip), vehicle: saline with Tween-80.

Consider `Nc1cccc(C(=O)CC(=O)Nc2nccs2)c1`, for which the T/C (dose: 50.0 mg/kg/injection, schedule: Q04DX003 (ip), vehicle: Klucel (hydroxypropylcellulose) (HPC)) was 90 % of control; the T/C (dose: 100.0 mg/kg/injection, schedule: Q01DX001 (ip), vehicle: Klucel (hydroxypropylcellulose) (HPC)) was 98 % of control; the T/C under setting [1] was 95 % of control; the T/C (dose: 200.0 mg/kg/injection, schedule: Q01DX001 (ip), vehicle: Klucel (hydroxypropylcellulose) (HPC)) is 103 % of control; the T/C under setting [2] is 90 % of control; the T/C (dose: 400.0 mg/kg/injection, schedule: Q01DX001 (ip), vehicle: Klucel (hydroxypropylcellulose) (HPC)) was 98 % of control.
On to `O=C(Nc1cccc(C2=NCCN2)c1)Nc1ccc(NC(=O)Nc2cccc(C3=NCCN3)c2)c(Cl)c1`, for which the T/C was 100 % of control (dose: 0.25 mg/kg/injection, schedule: Q01DX Z (ip), vehicle: carboxymethylcellulose (CMC)); 105 % of control (dose: 0.5 mg/kg/injection, schedule: Q01DX Z (ip), vehicle: carboxymethylcellulose (CMC)); 104 % of control (dose: 1.0 mg/kg/injection, schedule: Q01DX Z (ip), vehicle: carboxymethylcellulose (CMC)); 110 % of control (dose: 2.0 mg/kg/injection, schedule: Q01DX Z (ip), vehicle: carboxymethylcellulose (CMC)); 207 % of control (dose: 16.0 mg/kg/injection, schedule: Q01DX Z (ip), vehicle: carboxymethylcellulose (CMC)); 218 % of control (dose: 16.0 mg/kg/injection, schedule: Q01DX Z (ip), vehicle: water). For the same compound, the T/C reads like this: (dose: 31.0 mg/kg/injection, schedule: Q01DX Z (ip), vehicle: water) 286 % of control; (dose: 62.0 mg/kg/injection, schedule: Q01DX Z (ip), vehicle: water) 173 % of control; (dose: 62.0 mg/kg/injection, schedule: Q01DX Z (oral), vehicle: carboxymethylcellulose (CMC)) 105 % of control; (dose: 125.0 mg/kg/injection, schedule: Q01DX Z (oral), vehicle: carboxymethylcellulose (CMC)) 94 % of control; (dose: 250.0 mg/kg/injection, schedule: Q01DX Z (oral), vehicle: carboxymethylcellulose (CMC)) 97 % of control; (dose: 500.0 mg/kg/injection, schedule: Q01DX Z (oral), vehicle: carboxymethylcellulose (CMC)) 97 % of control.
Take `CC1CC(C)(C)N=C(CCC2CCCC23OCCO3)O1` (stereo not drawn): the T/C (dose: 100.0 mg/kg/injection, schedule: Q01DX009 (ip), vehicle: saline sonified) was 98 % of control; the T/C (dose: 100.0 mg/kg/injection, schedule: Q04DX003 (ip), vehicle: saline sonified) is 101 % of control; the T/C (dose: 200.0 mg/kg/injection, schedule: Q01DX009 (ip), vehicle: saline sonified) was 98 % of control; the T/C (dose: 200.0 mg/kg/injection, schedule: Q04DX003 (ip), vehicle: saline sonified) was 101 % of control; the T/C (dose: 400.0 mg/kg/injection, schedule: Q01DX009 (ip), vehicle: saline sonified) was 94 % of control; the T/C (dose: 400.0 mg/kg/injection, schedule: Q04DX003 (ip), vehicle: saline sonified) was 101 % of control.
For `Cc1cc(C)c(CC(C)(CO)CO)c(C)c1CC(C)(CO)CO`, the T/C reads like this: under setting [3], 107 % of control; under setting [4], 98 % of control; under setting [5], 96 % of control.
`CN=C(N)c1ccc(N=C(N)c2ccc(-c3ccc(C(N)=Nc4ccc(C(N)=NC)cc4)cc3)cc2)cc1`: the T/C runs as follows: (dose: 2.25 mg/kg/injection, schedule: Q01DX Z (ip), vehicle: carboxymethylcellulose (CMC)) 109 % of control; (dose: 4.5 mg/kg/injection, schedule: Q01DX Z (ip), vehicle: carboxymethylcellulose (CMC)) 115 % of control; (dose: 18.0 mg/kg/injection, schedule: Q01DX Z (ip), vehicle: carboxymethylcellulose (CMC)) 184 % of control; (dose: 50.0 mg/kg/injection, schedule: Q01DX Z (oral), vehicle: water) 101 % of control; (dose: 100.0 mg/kg/injection, schedule: Q01DX Z (oral), vehicle: water) 112 % of control; (dose: 200.0 mg/kg/injection, schedule: Q01DX Z (oral), vehicle: water) 107 % of control.
With `O=CN=C(CS(=O)(=O)O)c1ccccc1`, the T/C reads like this: (dose: 50.0 mg/kg/injection, schedule: Q04DX003 (ip), vehicle: saline) 103 % of control; under setting [6], 108 % of control; under setting [7], 100 % of control; under setting [8], 102 % of control.
As for `O=C1c2ccccc2C(=O)N1CCc1ccccn1`, the T/C was 101 % of control (dose: 50.0 mg/kg/injection, schedule: Q01DX009 (ip), vehicle: saline with Tween-80); 95 % of control (dose: 100.0 mg/kg/injection, schedule: Q01DX009 (ip), vehicle: saline with Tween-80); 102 % of control under setting [9]; 93 % of control (dose: 200.0 mg/kg/injection, schedule: Q01DX009 (ip), vehicle: saline with Tween-80); 101 % of control under setting [10].
Turning to `CC1(c2ccc(Cl)cc2)NC(=O)N(CC(N)=O)C1=O` (stereo not drawn), the T/C reads like this: under setting [9], 105 % of control; (dose: 400.0 mg/kg/injection, schedule: Q04DX003 (ip), vehicle: saline with Tween-80) 122 % of control.
Take `CCSc1ncnc2c1ncn2C1OC(CO)C(O)C1O` (stereo not drawn): the T/C is 116 % of control (dose: 132.0 mg/kg/injection, schedule: Q04DX003 (ip), vehicle: saline with Tween-80) and 124 % of control under setting [10].
For the compound `Cc1cn(C2OC(CO)C(O[Si](C)(C)C)C(O[Si](C)(C)C)C2O[Si](C)(C)C)c(=O)[nH]c1=O` (stereo not drawn), the T/C is, setting by setting: (dose: 100.0 mg/kg/injection, schedule: Q01DX001 (ip), vehicle: saline) 97 % of control; (dose: 200.0 mg/kg/injection, schedule: Q01DX001 (ip), vehicle: saline) 94 % of control; (dose: 400.0 mg/kg/injection, schedule: Q01DX001 (ip), vehicle: saline) 97 % of control.
`CN(C)C(=O)Nc1cccc(OC(=O)NC2CCCCC2)c1`: the T/C was 97 % of control (dose: 100.0 mg/kg/injection, schedule: Q01DX001 (ip), vehicle: saline with Tween-80); 92 % of control (dose: 200.0 mg/kg/injection, schedule: Q01DX001 (ip), vehicle: saline with Tween-80); 87 % of control (dose: 400.0 mg/kg/injection, schedule: Q01DX001 (ip), vehicle: saline with Tween-80).
For `CCN(CC)C(=O)C1C2CC3OC(=O)C1C3C2` (stereo not drawn), the T/C runs as follows: under setting [6], 105 % of control and 108 % of control; under setting [7], 94 % of control and 102 % of control; under setting [8], 104 % of control.
Turning to `CSC12OCC(O1)C1OC(C)(C)OC(C=O)C1O2` (stereo not drawn), the T/C (dose: 50.0 mg/kg/injection, schedule: Q04DX002 (ip), vehicle: saline) is 92 % of control and the T/C (dose: 100.0 mg/kg/injection, schedule: Q04DX002 (ip), vehicle: saline) is 95 % of control.
Take `NC(=O)N/N=C1\CCCC(OC(=O)c2ccccc2)CC1` (stereo not drawn): the T/C was 97 % of control under setting [3]; 97 % of control under setting [1]; 97 % of control under setting [4]; 102 % of control under setting [2]; 94 % of control under setting [5]; 96 % of control (dose: 400.0 mg/kg/injection, schedule: Q04DX003 (ip), vehicle: Klucel (hydroxypropylcellulose) (HPC)).
In the case of `COc1ccc2c(c1)NP(=S)(c1ccccc1)N2` (stereo not drawn), the T/C is 101 % of control (dose: 50.0 mg/kg/injection, schedule: Q01DX001 (ip), vehicle: gum acacia); 91 % of control (dose: 100.0 mg/kg/injection, schedule: Q01DX001 (ip), vehicle: gum acacia); 91 % of control (dose: 100.0 mg/kg/injection, schedule: Q01DX009 (ip), vehicle: gum acacia); 100 % of control (dose: 200.0 mg/kg/injection, schedule: Q01DX001 (ip), vehicle: gum acacia); 91 % of control (dose: 200.0 mg/kg/injection, schedule: Q01DX009 (ip), vehicle: gum acacia); 91 % of control (dose: 400.0 mg/kg/injection, schedule: Q01DX009 (ip), vehicle: gum acacia).
Turning to `C=C(S(=O)(=O)c1ccccc1)S(=O)(=O)c1ccccc1` (tested in a mixture with another compound), the T/C was 117 % of control (dose: 10.0 mg/kg/injection, schedule: Q04DX002 (ip), vehicle: Klucel (hydroxypropylcellulose) (HPC)); 102 % of control (dose: 20.0 mg/kg/injection, schedule: Q04DX002 (ip), vehicle: Klucel (hydroxypropylcellulose) (HPC)); 91 % of control (dose: 40.0 mg/kg/injection, schedule: Q04DX002 (ip), vehicle: Klucel (hydroxypropylcellulose) (HPC)); 86 % of control (dose: 200.0 mg/kg/injection, schedule: Q04DX002 (ip), vehicle: Klucel (hydroxypropylcellulose) (HPC)).
